Results taken from patent US10316038B2, “Pyrrolopyrimidine ITK inhibitors for treating inflammation and cancer” (ACLARIS THERAPEUTICS, INC., priority 2017, dated 2019).

Columns and labels:
[1] = test system: ITK phosphorylation of its substrate, PLCγ1, at Y783; assay: ITK target modulation assay (phospho-Y783 PLCγ1 immunoblot in Jurkat T cells); format: cell-based; conditions: Homo sapiens, Jurkat, 2 h, 2 hours compound, CD3/CD28 Dynabeads stimulation 100 sec, anti-phospho-Y783 PLCγ1 immunoblot, read-out: PLC-γ Inhibition IC50
Method: Target modulation was based upon the ability of a compound to inhibit ITK phosphorylation of its substrate, PLCγ1, at […]. Human Jurkat T cells were placed in snap-cap polypropylene tubes at 4 million per tube in 800 μL medium (RPMI1640 with 10% heat inactivated serum and […] 2-mercaptoethanol and supplemented with glutamine/penicillin/streptomycin). Compounds were added as 100 μL of 10× working stock solutions in medium with 1% DMSO (or medium with 1% DMSO for controls) and placed in a 37° C. incubator for 2 hours. Stimulation was carried out using CD3/CD28 Dynabeads to activate the T cell receptor and mimic antigen presenting cells. Beads were added for 100 sec at a ratio of 1 bead per cell, in 100 μL medium (or medium alone for unstimulated control). Starting at 70 sec, cells and beads were pelleted in a microfuge for 15 sec, the supernatant aspirated, and 50 μL lysis buffer was added per tube and mixed with the pellet at the 100 sec time point. Tubes were placed on a rotator for 30 min at 4° C., and cell debris was pelleted in a microfuge. Supernatant was mixed 1:1 with 2× Sample Buffer and subjected to SDS-polyacrylamide gel electrophoresis. After transfer to nitrocellulose, immunoblotting was done with anti-phospho-[…] PLCγ1 antibody. Immunoblots were visualized with ECL using horseradish peroxidase conjugated secondary antibody.

[2] = molecular target: T1, ITK (Homo sapiens, UniProt Q08881); assay: ITK inhibitor binding potency (LanthaScreen competitive binding assay); conditions: TR-FRET competitive binding, 10 nM ITK, 50 nM kinase tracer-236; pre-incubation condition not given; read-out: ITK Inhibition IC50
T1 sequence (Q08881 1-620): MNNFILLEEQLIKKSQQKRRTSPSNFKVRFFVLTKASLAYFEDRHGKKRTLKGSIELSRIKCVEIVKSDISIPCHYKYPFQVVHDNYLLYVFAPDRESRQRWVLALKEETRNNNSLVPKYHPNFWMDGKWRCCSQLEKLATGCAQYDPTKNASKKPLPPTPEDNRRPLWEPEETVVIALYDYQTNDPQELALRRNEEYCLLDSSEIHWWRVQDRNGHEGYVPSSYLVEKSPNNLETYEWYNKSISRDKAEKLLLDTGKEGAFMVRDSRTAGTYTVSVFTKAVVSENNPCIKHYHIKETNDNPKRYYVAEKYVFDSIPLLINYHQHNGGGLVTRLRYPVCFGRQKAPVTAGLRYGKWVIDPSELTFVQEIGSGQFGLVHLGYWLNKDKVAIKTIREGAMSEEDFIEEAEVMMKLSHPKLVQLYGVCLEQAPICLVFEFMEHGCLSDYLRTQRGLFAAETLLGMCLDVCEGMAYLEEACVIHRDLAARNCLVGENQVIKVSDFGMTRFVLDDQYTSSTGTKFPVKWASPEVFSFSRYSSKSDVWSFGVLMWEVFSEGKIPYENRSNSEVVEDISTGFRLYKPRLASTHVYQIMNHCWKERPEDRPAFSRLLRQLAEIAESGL
Excerpt: The ability of candidate compounds to interact with ITK is quantitated by a competitive binding assay using the LanthaScreen technology developed by Life Technologies. This assay is based on the binding of a proprietary, Alexa Fluor™ 647-labeled, ATP-competitive kinase inhibitor (kinase tracer-236) to the ITK expression construct in the presence of a Europium-conjugated antibody, resulting in a FRET (fluorescence resonance energy transfer) signal. Displacement of the kinase tracer by compound results in a lower emission ratio upon excitation of the Europium chelate. Candidate compounds are designed as potential irreversible inhibitors of ITK, capable of ligating to an active site cysteine residue resulting in time dependent covalent binding. The time dependent nature of irreversible inhibition is investigated by performing the binding assay with and without a pre-incubation of compound and ITK. […] The inhibitory potency of candidate compounds is measured in 20 mM HEPES pH 7.5, 10 mM MgCl2, 0.01% BSA, 0.0005% Tween-20, and 2% DMSO in the presence of 10 nM ITK, 2 nM Eu-anti-GST antibody, and 50 nM kinase tracer-236 using a 384-well plate format. Background signal is defined in the absence of ITK and uninhibited signal is defined in the presence of vehicle (2% DMSO) alone. Compounds were evaluated in an 11 point dose-response ranging from 20 uM to 0.34 nM. The binding assays are performed under two preincubation conditions to evaluate time dependence of inhibition. For the pre-incubation assay, ITK and Eu-anti-GST antibody are pre-incubated with compound or vehicle for two hours prior to the addition of kinase tracer. The non-preincubated assay is run under conditions where ITK and Eu-anti-GST antibody are added to a mixture of compound and kinase tracer. IC50 values of compounds are determined using a 4 parameter logistical fit of emission ratio as a function of the concentration of compound.

Structure (SMILES) | IC50 [1] | IC50 [2]
CN(C)C/C=C/C(=O)Nc1cncc(-c2cnc3[nH]cc(-c4ccncn4)c3c2)c1 [Example 57, (E)-4-(dimethyl-amino)-N-(5-(3-(pyrimidin-4-yl)-1H-pyrrolo[2,3-b]pyridin-5-yl)-pyridin-3-yl)but-2-enamide] | > 5000 nM | ≤ 100 nM
C=CC(=O)Nc1cc(OC)cc(-c2cnc3[nH]cc(-c4ccncn4)c3c2)c1 [Example 30, N-(3-methoxy-5-(3-(pyrimidin-4-yl)-1H-pyrrolo-[2,3-b]pyridin-5-yl)phenyl)-acrylamide] | ≤ 1000 nM | ≤ 100 nM
C=CC(=O)Nc1cc(-c2cnc3[nH]cc(-c4ccnc(NC)n4)c3c2)cc(C(F)(F)F)c1 [Example 3, N-(3-(3-(2-(Methylamino)pyrimidin-4-yl)-1H-pyrrolo[2,3-b]pyridin-5-yl)-5-(trifluoromethyl)phenyl)acrylamide] | ≤ 1000 nM | ≤ 100 nM
C=CC(=O)Nc1cccc(-c2cnc3[nH]cc(-c4cncc(C#N)c4)c3c2)c1 [Example 8, N-(3-(3-(5-cyano-pyridin-3-yl)-1H-pyrrolo[2,3-b]-pyridin-5-yl)-phenyl)acrylamide] | 1000 to 5000 nM | ≤ 100 nM
C=CC(=O)Nc1cc(-c2cnc3[nH]cc(-c4cncc(C#N)c4)c3c2)cc(C(F)(F)F)c1 [Example 12, N-(3-(3-(5-cyano-pyridin-3-yl)-1H-pyrrolo[2,3-b]-pyridin-5-yl)-5-(trifluoromethyl)-phenyl)acrylamide] | ≤ 1000 nM | ≤ 100 nM
C=CC(=O)Nc1cccc(-c2cnc3[nH]cc(-c4ccnc(C#N)c4)c3c2C)c1 [Example 44, N-(3-(3-(2-cyano-pyridin-4-yl)-4-methyl-1H-pyrrolo[2,3-b]-pyridin-5-yl)-phenyl)acrylamide] | ≤ 1000 nM | ≤ 100 nM
CN(C)C/C=C/C(=O)Nc1cncc(-c2cnc3[nH]cc(-c4ccnc(F)c4)c3c2)c1 [Example 45, (E)-4-(dimethyl-amino)-N-(5-(3-(2-fluoropyridin-4-yl)-1H-pyrrolo-[2,3-b]pyridin-5-yl)pyridin-3-yl)-but-2-enamide] | ≤ 1000 nM | ≤ 100 nM
C=CC(=O)Nc1cc(OC)cc(-c2cnc3[nH]cc(-c4ccnc(OC)c4)c3c2)c1 [Example 26, N-(3-methoxy-5-(3-(2-methoxy-pyridin-4-yl)-1H-pyrrolo[2,3-b]-pyridin-5-yl)-phenyl)acrylamide] | ≤ 1000 nM | ≤ 100 nM
COc1cc(-c2c[nH]c3ncc(-c4cncc(NC(=O)/C=C/CN(C)C)c4)cc23)ccn1 [Example 71, (E)-4-(dimethyl-amino)-N-(5-(3-(2-methoxypyridin-4-yl)-1H-pyrrolo[2,3-b]pyridin-5-yl)-pyridin-3-yl)but-2-enamide] | ≤ 1000 nM | ≤ 100 nM
CN(C)C/C=C/C(=O)Nc1cccc(-c2cnc3[nH]cc(-c4cncc(C#N)c4)c3c2)c1 [Example 11, (E)-N-(3-(3-(5-cyanopyridin-3-yl)-1H-pyrrolo-[2,3-b]pyridin-5-yl)phenyl)-4-(dimethylamino)-but-2-enamide] | > 5000 nM | ≤ 100 nM
C=CC(=O)Nc1cncc(-c2cnc3[nH]cc(-c4ccncn4)c3c2)c1 [Example 50, N-(5-(3-(pyrimidin-4-yl)-1H-pyrrolo-[2,3-b]pyridin-5-yl)pyridin-3-yl)acrylamide] | ≤ 1000 nM | ≤ 100 nM
C=CC(=O)Nc1cc(OC)cc(-c2cnc3[nH]cc(-c4ccnc5[nH]ccc45)c3c2)c1 [Example 15, N-(3-(1H,1′H-[3,4′-bipyrrolo-[2,3-b]pyridin]-5-yl)-5-methoxy-phenyl)acrylamide] | ≤ 1000 nM | ≤ 100 nM
C=CC(=O)Nc1cc(-c2cnc3[nH]cc(-c4cccc(Cl)c4)c3c2)cc(C(F)(F)F)c1 [Example 58, N-(3-(3-(3-chloro-phenyl)-1H-pyrrolo[2,3-b]-pyridin-5-yl)-5-(trifluoro-methyl)phenyl)-acrylamide] | > 5000 nM | ≤ 1000 nM
C=CC(=O)Nc1cc(-c2cnc3[nH]cc(-c4cccc(F)c4)c3c2)cc(C(F)(F)F)c1 [Example 63, N-(3-(3-(3-fluoro-phenyl)-1H-pyrrolo[2,3-b]-pyridin-5-yl)-5-(trifluoro-methyl)phenyl)-acrylamide] | 1000 to 5000 nM | ≤ 1000 nM
C=CC(=O)Nc1cc(OC)cc(-c2cnc3[nH]cc(-c4ccnc(C#N)c4)c3c2)c1 [Example 51, N-(3-(3-(2-cyano-pyridin-4-yl)-1H-pyrrolo[2,3-b]-pyridin-5-yl)-5-methoxyphenyl)-acrylamide] | > 5000 nM | ≤ 100 nM
C=CC(=O)Nc1cc(-c2cnc3[nH]cc(-c4ccnc(C#N)c4)c3c2)cc(-c2cnn(C)c2)c1 [Example 21, N-(3-(3-(2-cyano-pyridin-4-yl)-1H-pyrrolo[2,3-b]pyridin-5-yl)-5-(1-methyl-1H-pyrazol-4-yl)-phenyl)acrylamide] | ≤ 1000 nM | ≤ 100 nM
CN(C)C/C=C/C(=O)Nc1cc(-c2cnc3[nH]cc(-c4ccncn4)c3c2)cc(C(F)(F)F)c1 [Example 49, (E)-4-(dimethyl-amino)-N-(3-(3-(pyrimidin-4-yl)-1H-pyrrolo[2,3-b]pyridin-5-yl)-5-(trifluoro-methyl)phenyl)-but-2-enamide] | ≤ 1000 nM | ≤ 100 nM
C=CC(=O)Nc1cccc(-c2cnc3[nH]cc(-c4cncc(NC)c4)c3c2)c1 [Example 24, N-(3-(3-(5-(methylamino)-pyridin-3-yl)-1H-pyrrolo[2,3-b]-pyridin-5-yl)-phenyl)acrylamide] | ≤ 1000 nM | ≤ 100 nM
C=CC(=O)Nc1cncc(-c2cnc3[nH]cc(-c4ccnc(OC)c4)c3c2)c1 [Example 17, N-(5-(3-(2-methoxypyridin-4-yl)-1H-pyrrolo-[2,3-b]pyridin-5-yl)pyridin-3-yl)-acrylamide] | ≤ 1000 nM | ≤ 100 nM
C=CC(=O)Nc1cc(-c2cnc3[nH]cc(-c4ccnc5[nH]ccc45)c3c2)cc(C(F)(F)F)c1 [Example 25, N-(3-(1H,1′H-[3,4′-bipyrrolo-[2,3-b]pyridin]-5-yl)-5-(trifluoro-methyl)phenyl)-acrylamide] | ≤ 1000 nM | ≤ 1000 nM
C=CC(=O)N(C)c1cccc(-c2cnc3[nH]cc(-c4ccnc(OC)c4)c3c2)c1 [Example 2, N-(3-(3-(2-Methoxypyridin-4-yl)-1H-pyrrolo[2,3-b]pyridin-5-yl)phenyl)-N-methylacrylamide] | 1000 to 5000 nM | ≤ 100 nM
C=CC(=O)Nc1cc(-c2cnc3[nH]cc(-c4cccc(C#N)c4)c3c2)cnc1OC1CCOC1 (stereo not shown) [Example 5, N-(5-(3-(3-Cyanophenyl)-1H-pyrrolo[2,3-b]pyridin-5-yl)-2-((tetrahydrofuran-3-yl)oxy)pyridin-3-yl)acrylamide] | 1000 to 5000 nM | ≤ 100 nM
C=CC(=O)Nc1cccc(-c2cnc3[nH]cc(-c4cncc(C(N)=O)c4)c3c2)c1 [Example 9, 5-(5-(3-acryl-amidophenyl)-1H-pyrrolo[2,3-b]-pyridin-3-yl)-nicotinamide] | > 5000 nM | ≤ 100 nM
